In ChEMBL document CHEMBL3507680, “University of Dundee, Gates Library screen for HepG2 cell viability”:

Experiment: Human HepG2 cell viability assay in 384 well format
Type: toxicity, cell-based
Design: dose 125 nL, time 70.5 hour; concentration not given beside the values
Details: HepG2 cells, read-out: Inhibition

## CCc1nnc(CNC(=O)CCN2CCN(c3cccc(C)c3)CC2)s1
  cytotoxicity at 70.5 h: -4.25%

## Cc1ccc(CSc2nc(N)cc(NCC(=O)N3CCNCC3)n2)cc1
  cytotoxicity at 70.5 h: -4.01%

## O=C(COc1ccc2cccnc2c1)N1CCN[C@H]2CS(=O)(=O)C[C@H]21
  cytotoxicity at 70.5 h: 18.5%

## CN(CCO)c1nc(-c2ccccn2)nc2c1CCNC2
  cytotoxicity at 70.5 h: -0.45%

## Cc1ccccc1-n1c(C)cc(=O)[nH]c1=O
  cytotoxicity at 70.5 h: 26.3%

## CSCc1noc(CN2CC(Cc3ccccc3)CC2=O)n1 (stereo unspecified)
  cytotoxicity at 70.5 h: -13%

## CC(C)CN1CC2(CCN(C(=O)c3cn4cccnc4n3)CC2)CC1=O
  cytotoxicity at 70.5 h: -17.9%

## Cc1ccc(CN2CCN(C(=O)c3ccc(CO)cc3)C(C)C2=O)cc1 (stereo unspecified)
  cytotoxicity at 70.5 h: -17.6%

## CCc1nnc(CN2CCC3(CC2)Nc2ccccc2NC3=O)o1
  cytotoxicity at 70.5 h: 19.8%

## Cc1nc(C(C)C)ncc1C(=O)N1CCCC(N2CCCC2)C1 (stereo unspecified)
  cytotoxicity at 70.5 h: 6.69%

## c1cc(C2CCN(c3ncnc4c3CCNCC4)CC2)ccn1
  cytotoxicity at 70.5 h: -10.9%

## CSc1ccccc1C(=O)N1CCN(C)C2(CCC(=O)N(C)CC2)C1 (stereo unspecified)
  cytotoxicity at 70.5 h: -14.6%

## Cc1nc(C2CCN(C[C@H](C)CO)CC2)cc(N2CCOCC2)n1
  cytotoxicity at 70.5 h: -0.547%

## O=C(NCc1ccc2nonc2c1)C1CCN(C(=O)C2CCC2)CC1
  cytotoxicity at 70.5 h: -6.22%

## Cc1nn(C)cc1-c1ccnc(N2CCCN(CC(C)C)CC2)n1
  cytotoxicity at 70.5 h: -6.83%

## CN1CCc2[nH]cnc2C12CCN(Cc1ccc(S(C)(=O)=O)cc1)CC2
  cytotoxicity at 70.5 h: -7.39%

## c1ccc(-c2cccc(-c3ccn(CCN4CCCCC4)n3)c2)nc1
  cytotoxicity at 70.5 h: 13.3%

## COCC[C@]1(O)CCN(CC(=O)NCc2ccccc2C)C[C@H]1C
  cytotoxicity at 70.5 h: -2.23%

## NC(=O)C1CCCN(C(=O)c2ccc(-n3ccnc3)cc2)C1 (stereo unspecified)
  cytotoxicity at 70.5 h: -5.88%

## CCC[C@H]1CN(Cc2cc(C)no2)C[C@@H]1NC(=O)C1(COC)CCC1
  cytotoxicity at 70.5 h: -10%

## Cc1nc2ccccc2n1Cc1cc(C(=O)N(C)C2CCOC2)n[nH]1 (stereo unspecified)
  cytotoxicity at 70.5 h: -12.8%

## CC(C)NC(=O)c1nc(Cn2c(C(F)(F)F)nc3ccccc32)no1
  cytotoxicity at 70.5 h: 14.5%

## CC(C)N1CC2(CCC1=O)CCN(C(=O)c1cccc(F)c1F)CC2
  cytotoxicity at 70.5 h: -5.47%

## COCCNc1nc2c(c(N3CCn4nc(C)cc4C3)n1)CCNCC2
  cytotoxicity at 70.5 h: -8.96%

## CN(C)c1ncc2c(n1)CCCC2NC(=O)c1ccsc1 (stereo unspecified)
  cytotoxicity at 70.5 h: -3.74%

## Cc1cc(C)nc(CNC(=O)C(c2cccnc2)N2CCOCC2)n1 (stereo unspecified)
  cytotoxicity at 70.5 h: -6.63%

## CN(Cc1ccc(OCC(=O)N2CCOCC2)cc1)S(C)(=O)=O
  cytotoxicity at 70.5 h: 2.5%

## CC(C)[C@H]1COC(=O)N1CC(=O)N1CCN(C(=O)c2ccco2)CC1
  cytotoxicity at 70.5 h: 8.43%

## CC(C)c1cc(C(=O)N2C[C@@H](C)[C@](O)(C3CC3)C2)[nH]n1
  cytotoxicity at 70.5 h: -5.59%

## COc1ccc(Cl)cc1C(=O)N1C[C@@H](NC(=O)N(C)C)[C@H](C(C)C)C1
  cytotoxicity at 70.5 h: -10.5%

## COC(=O)N1CCN(Cc2ccccc2Cl)CC1
  cytotoxicity at 70.5 h: -1.89%

## O=C(c1cc(Br)ccc1Cl)N1CCN(Cc2ccco2)CC1
  cytotoxicity at 70.5 h: -4.63%

## Cc1ccc(-c2c(C(=O)NC3CCN(C)CC3)csc2C)cc1
  cytotoxicity at 70.5 h: -9.95%

## CCc1ccc(C(=O)N2CCN(Cc3ccc(F)cc3)CC2)s1
  cytotoxicity at 70.5 h: 4.63%

## CNc1cc(C)nc(N2CCC3(CC2)[C@H](O)C[C@@H]3OC)n1
  cytotoxicity at 70.5 h: -2.45%

## O=C(Cc1ccccc1F)NCCN1CCOCC1
  cytotoxicity at 70.5 h: -6.95%

## Cc1ccc(CN2CCN(C(=O)c3ccc(Br)o3)CC2)cc1
  cytotoxicity at 70.5 h: 27.9%

## COc1ccc(-c2nc(CN(C)Cc3nncn3C)c(C)o2)c(C)c1C
  cytotoxicity at 70.5 h: 5.19%

## COCCC1CCN([C@@H]2c3ccccc3C3(CCNCC3)[C@H]2O)CC1
  cytotoxicity at 70.5 h: -3.9%

## NCCc1n[nH]c(=O)n1-c1cccc2ccccc12
  cytotoxicity at 70.5 h: -4.93%

## O=C1OC2(CCNCC2)CN1CC(=O)N1CCCC1c1nccs1 (stereo unspecified)
  cytotoxicity at 70.5 h: -7.02%

## COCCn1ccnc1CN(Cc1ccccn1)CC(C)C
  cytotoxicity at 70.5 h: -6.56%

## O=C(c1cc(Cn2cnc3ccccc32)on1)N1CCOCC1
  cytotoxicity at 70.5 h: -17.3%

## Cc1c(C(=O)NC2CCCC2)nnn1-c1ccccc1
  cytotoxicity at 70.5 h: -8.58%

## CCN(CCc1nc2cc(C)ccc2[nH]1)C(=O)[C@@H](N)Cc1c[nH]cn1
  cytotoxicity at 70.5 h: -11.4%

## CN(Cc1noc(-c2ccccc2)n1)C(=O)CSc1nnc(N)s1
  cytotoxicity at 70.5 h: 14.3%

## COc1ccc2c(c1)C(C(=O)N(C)CCCc1nccn1C)CC(=O)N2 (stereo unspecified)
  cytotoxicity at 70.5 h: 5.74%

## COCCn1cncc1Cn1ncc2ccccc2c1=O
  cytotoxicity at 70.5 h: -4.19%

## CN(CC(=O)Nc1ccon1)S(=O)(=O)c1cc(Cl)ccc1Cl
  cytotoxicity at 70.5 h: 23.9%

## Cc1nc(N2CCC(C(O)c3nccn3C)CC2)c2nc(C)oc2n1 (stereo unspecified)
  cytotoxicity at 70.5 h: -5.83%

## Cc1cccc(-n2c(C)cc(=O)[nH]c2=O)c1C
  cytotoxicity at 70.5 h: -4.81%

## O=C1NCCCC12CCN(c1nc3c(c(C(F)(F)F)n1)CCCC3)C2 (stereo unspecified)
  cytotoxicity at 70.5 h: -6%

## Cc1cc(NC(=O)CCn2cncn2)no1
  cytotoxicity at 70.5 h: 5.52%

## COC(=O)NCC(=O)N(C)CC1Cc2ccccc2CN1C (stereo unspecified)
  cytotoxicity at 70.5 h: -2.82%

## CCN1CCN(S(=O)(=O)c2cnc(NC(C)=O)s2)CC1
  cytotoxicity at 70.5 h: 17.3%

## COc1cc(NC(=O)NCc2ccccn2)cc(OC)c1
  cytotoxicity at 70.5 h: 8.5%

## Cc1ccccc1CN(CCN(C)C)Cc1ccccc1C(=O)O
  cytotoxicity at 70.5 h: -7.13%

## Cc1cc(NCCNc2ncccc2C)n2nc(C)cc2n1
  cytotoxicity at 70.5 h: -15.2%

## O=C(N1CCOCC1)N1CCCC1c1nc(-c2ccccn2)no1 (stereo unspecified)
  cytotoxicity at 70.5 h: -8.93%

## COc1cccc(CC2CN(C3CC(C)(C)NC(C)(C)C3)CCO2)c1 (stereo unspecified)
  cytotoxicity at 70.5 h: 50.4%

## CN(Cc1ccccc1Cl)C(=O)c1cc(CN2CCC(O)CC2)on1
  cytotoxicity at 70.5 h: -17.3%

## CCc1ccccc1OCCNCCc1c[nH]cn1
  cytotoxicity at 70.5 h: 29.6%

## COc1cccc(-c2ncc(CN3CCOCC(O)C3)s2)c1 (stereo unspecified)
  cytotoxicity at 70.5 h: -6.59%

## COc1ccc(OCCN2CCCN(Cc3noc(C)n3)CC2)cc1
  cytotoxicity at 70.5 h: 30.5%

## O=C(NCCn1ccnc1)c1ccn(-c2ccccc2)n1
  cytotoxicity at 70.5 h: -1.21%

## Cc1nnc(CN2CCCC2c2c(C)nn(C)c2Cl)o1 (stereo unspecified)
  cytotoxicity at 70.5 h: -11.6%

## Cc1nn(C)c(Cl)c1C1CCCN1Cc1nc(C2CC2)no1 (stereo unspecified)
  cytotoxicity at 70.5 h: -7.26%

## CC(C)c1nccn1C1CCCN(C(=O)c2cc(C3CC3)on2)C1 (stereo unspecified)
  cytotoxicity at 70.5 h: -3.7%

## Cc1nccc(-c2cccc(NCC(=O)N3CCCC(C)C3)c2)n1 (stereo unspecified)
  cytotoxicity at 70.5 h: -9.5%

## Cc1noc(NC(=O)c2ccc(C#N)cc2)n1
  cytotoxicity at 70.5 h: -7.88%

## Cc1noc(NC(=O)c2ccc(Br)o2)n1
  cytotoxicity at 70.5 h: -9.68%

## CCc1nc(C)c(C(=O)NCCNC(=O)c2cccs2)s1
  cytotoxicity at 70.5 h: 15.7%

## Cc1ccc(C(O)CNC(=O)NCc2c(C)cc(C)[nH]c2=O)cc1 (stereo unspecified)
  cytotoxicity at 70.5 h: -9.83%

## Cc1cc(C)c(CNC(=O)NCC(O)c2ccc(Cl)cc2)c(=O)[nH]1 (stereo unspecified)
  cytotoxicity at 70.5 h: -4.37%

## Cc1ccc(C(=O)NCC(O)c2cccc(F)c2)c(=O)[nH]1 (stereo unspecified)
  cytotoxicity at 70.5 h: -0.0981%

## Cc1cc(C)c(CNC(=O)NCc2cc(F)cc(F)c2)c(=O)[nH]1
  cytotoxicity at 70.5 h: -3.54%

## Cc1cc(C)c(CNC(=O)NCC(O)c2ccccc2)c(=O)[nH]1 (stereo unspecified)
  cytotoxicity at 70.5 h: -1.05%

## COC(CNC(=O)NCc1c(C)cc(C)[nH]c1=O)c1ccccc1 (stereo unspecified)
  cytotoxicity at 70.5 h: -12.2%

## COc1ccccc1CN(C)C(=O)NCc1c(C)cc(C)[nH]c1=O
  cytotoxicity at 70.5 h: -0.543%

## Cc1cc(C)c(CNC(=O)N(C)Cc2cccc(C#N)c2)c(=O)[nH]1
  cytotoxicity at 70.5 h: -1.75%

## Cc1ccccc1-n1c(C)cc(C(=O)N2CCn3c(C)nnc3C2)c1C
  cytotoxicity at 70.5 h: -1.44%
